# Source: patent US5025027A, “Cyclic carbamate analogues of (+)-pilocarpine” (Regents of the University of California, priority 1989, dated 1991)
# pEC50: −log10 of the molar value.
# Assays:
# muscarinic receptors = molecular target: T1, muscarinic receptors (Cavia porcellus, UniProt H0W1Z3); assay: Guinea pig ileum bioassay (isotonic contractions); conditions: for muscarinic agonist activity (in words) / pEC50 / potency compared with pilocarpine (in words): guinea pig ileum; for muscarinic agonist activity (in words) / pEC50: in vitro; for pEC50: read-out: ED50 (the source's name); for potency compared with pilocarpine (in words): relative to pilocarpine; for contractions of guinea pig ileum (FIG. 1), in words: single doses, 9, 10, 8 in increasing order of potency
# T1 construct: a distal portion of guinea pig ileum was cut and a segment (1-1.5 cm) was tied at both ends; from tissue; host or cells: guinea pig distal ileum segment (isolated organ bath)
# T1 sequence (H0W1Z3 1-590): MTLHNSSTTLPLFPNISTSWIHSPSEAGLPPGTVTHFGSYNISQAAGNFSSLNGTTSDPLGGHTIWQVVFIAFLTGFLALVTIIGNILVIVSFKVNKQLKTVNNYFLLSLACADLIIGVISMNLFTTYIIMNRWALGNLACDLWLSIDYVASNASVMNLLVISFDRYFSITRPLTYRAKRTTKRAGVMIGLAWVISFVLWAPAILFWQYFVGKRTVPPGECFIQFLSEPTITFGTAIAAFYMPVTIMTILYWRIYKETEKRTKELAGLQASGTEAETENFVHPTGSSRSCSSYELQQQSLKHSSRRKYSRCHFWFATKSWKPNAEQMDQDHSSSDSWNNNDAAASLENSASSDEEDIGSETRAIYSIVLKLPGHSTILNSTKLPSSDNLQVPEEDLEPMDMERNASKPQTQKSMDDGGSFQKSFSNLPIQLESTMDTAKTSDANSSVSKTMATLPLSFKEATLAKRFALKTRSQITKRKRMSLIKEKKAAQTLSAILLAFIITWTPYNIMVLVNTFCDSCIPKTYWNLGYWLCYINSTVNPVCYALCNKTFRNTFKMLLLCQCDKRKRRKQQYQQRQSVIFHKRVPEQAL
# Procedure: Guinea Pig Ileum Bioassay. Briefly, a distal portion of guinea pig ileum was cut and a segment (1-1.5 cm) was tied at both ends. One end was connected to a force displacement transducer and the other end to the muscle holder in a 5 ml organ bath. […] After the tissue was allowed to equilibrate for 45-60 minutes, single doses of agonists were administered into the bath and isotonic contractions were recorded on a Grass polygraph.
# [1] = cited from earlier work; for pharmacological activity (in words): products of lactone cleavage or epimerization of pilocarpine; for activity of pilocarpine analogues (in words): less active than pilocarpine
# [2] = cited from earlier work
Compound,muscarinic agonist activity (in words) (muscarinic receptors),pEC50 (muscarinic receptors),potency compared with pilocarpine (in words) (muscarinic receptors),"contractions of guinea pig ileum (FIG. 1), in words (muscarinic receptors)",further results
"CCN1C(=O)OC[C@@H]1Cc1cncn1C [Compound 8, (S)-3-Ethyl-4-(1'-methyl-5'-imidazolyl)methyl-2-oxazolidinone]",–,6.00,equipotent with pilocarpine,cholinergic muscarinic agonists,log concentration-response curves (in words) (muscarinic receptors; pilocarpine and 8 compared): parallel log concentration-response curves
CC[C@H]1C(=O)OC[C@@H]1Cc1cncn1C [isopilocarpine],–,–,–,–,pharmacological activity (in words) [1]: essentially pharacologically inactive
CC[C@@H]1C(=O)OC[C@@H]1Cc1cn(C)cn1 [neopilocarpine],–,–,–,–,activity of pilocarpine analogues (in words) [1]: less active
CC[C@H](C(=O)O)[C@H](CO)Cc1cncn1C [pilocarpic acid],–,–,–,–,pharmacological activity (in words) [1]: essentially pharacologically inactive
CC[C@@H]1C(=O)OC[C@@H]1Cc1cnc[nH]1 [pilocarpidine],–,–,–,–,activity of pilocarpine analogues (in words) [1]: less active
CC[C@@H]1C(=O)OC[C@@H]1Cc1cncn1C [pilocarpine],–,–,–,–,duration of biological activity (in words) ([1]; due to hydrolytic cleavage of the lactone ring and/or epimerization): short duration of biological activity; side effects on administration for long periods (in words) ([2]; administered for long periods): without side effects; effect on intraocular pressure (in words) ([2]; narrow and wide angle glaucoma): decreases the intraocular pressure; duration of intraocular pressure lowering ([2]; topical miotic): about three

# Second part, led by results:
muscarinic agonist activity (in words) (muscarinic receptors),pEC50 (muscarinic receptors),potency compared with pilocarpine (in words) (muscarinic receptors),"contractions of guinea pig ileum (FIG. 1), in words (muscarinic receptors)",Compound,further results
inactive,–,–,–,"CCN1C(=O)OC[C@@H]1Cc1cn(Cc2ccccc2)cn1 [Compound 6, (S)-3-Ethyl-4-(1,'-benzyl-4'-imidazolyl)methyl-2-oxazolidinone]",–
inactive,–,–,–,CCN1C(=O)OC[C@@H]1Cc1c[n+](Cc2ccccc2)cn1C [Compound 7],–
weaker muscarinic agonists,3.74,less active,cholinergic muscarinic agonists,"CCN1C(=O)OC[C@@H]1Cc1c[nH]cn1 [Compound 9, (S)-3-Ethyl-4-(4'-imidazolyl)methyl-2-oxazolidinone]",–
weaker muscarinic agonists,4.85,less active,cholinergic muscarinic agonists,"CCN1C(=O)OC[C@@H]1Cc1cn(C)cn1 [Compound 10, (S)-3-Ethyl-4-(1'-methyl-4'-imidazolyl)methyl-2-oxazolidinone]",–
